Measurements: patent US6365634B1, “Naturally occurring compounds and their derivatives as cyclooxygenase 2 and/or 5-lipoxygenase inhibitors” (C-P Technology Limited Partnership, priority 1997, dated 2002)

Test system: human keratinocyte LTB4 production
Assay: Cell-based 5-LO assay: LTB4 production by cultured human keratinocytes (enzyme immunoassay)
Conditions: 5, 1.0, 0.2 and 0.04 uM, 24 hours, high calcium medium
From the text: In addition to assessing the effect of dehydroabietic acid methyl ester on the production of PGE2 by human keratinocytes, the human keratinocyte culture system was also used to assess for the inhibition of LTB4 production. Keratinocytes have not been used as extensively as other cell types for 5-LO studies, however, human keratinocytes produce appreciable amounts of LTB4 and production of this eicosanoid by cultured keratinocytes is inhibited by known inhibitors of 5-LO (see FIG. 11). To assess for inhibition of LTB4 production, human keratinocytes were cultured as described above. Following introduction of the high calcium media, the identical dilution series of dehydroabietic acid methyl ester as described above in the PGE2 study was added to duplicate wells of keratinocytes. Twenty-four hours later culture media samples were removed from each well and the amount of LTB4 in each sample determined using an enzyme immunoassay specific for LTB4 (Cayman Chemical). As was done with the PGE2 assay described above, the percent inhibition was calculated based on a comparison between vehicle treated control cultures and cultures treated with dehydroabietic acid methyl ester or Rev 5901 (a specific 5-LO inhibitor; Cayman Chemical).

With `COC(=O)[C@]1(C)CCC[C@]2(C)c3ccc(C(C)C)cc3CC[C@@H]12` [Dehydroabietic acid methyl ester, dehydroabietic acid methyl ester] the “inhibition of LTB4 production by cultured human keratinocytes” value was “inhibited the production of LTB4 by cultured human keratinocytes in a dose-dependent manner”.
